From patent US20180327367A1, “MACROCYCLIC BROAD SPECTRUM ANTIBIOTICS” (priority 2015, published 2018)
pIC50: −log10 of the molar value. In brackets after ≈: the same amount, converted by molar mass. Like-named read-outs stand apart in the source and are kept apart here.

Key:
[1] = test system: Escherichia coli ATCC 25922; assay: Minimum inhibitory concentration, broth micro-dilution (CLSI), E. coli; type: cell-based; conditions: Escherichia coli, ATCC25922, 22 h, 35° C., 22 hours
[2] = test system: Methicillin Resistant Staphylococcus aureus strain USA 300, NRS384; assay: Minimum inhibitory concentration, broth micro-dilution (CLSI), S. aureus; type: cell-based; conditions: Staphylococcus aureus, MRSA / NRS 384 / USA300, 22 h, 35° C., 22 hours
Method in brief: (§1)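 Ten-point 2-fold series began at 4 μg/mL in protocol 2 and 0.5 μg/mL in protocol 3, in cation-adjusted MHB plus 0.002% Tween-80. Bacteria added to OD600 0.0005 final and incubated at 35° C for 22 hours per CLSI microdilution.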

[3] = molecular target: T1, SpsB (Staphylococcus aureus signal peptidase) (Staphylococcus aureus, UniProt P0A070); assay: cell-based; type: biochemical; conditions: SpsB IC50, whole-cell S. aureus (USA300 background, overexpressing SpsB) as SpsB source; fluorogenic peptide substrate, kinetic read 30 min
T1 construct: This assay uses a suspension of Staphylococcus aureus cells as a source of SpsB instead of recombinant SpsB protein; endogenous in cells; host or cells: S. aureus, USA300 background, overexpressing SpsB (whole-cell suspension from frozen pellets)
Method in brief: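 Cleavage of an internally quenched (Dabcyl)βAla-KPAKAAE(Edans) peptide, added as 20 μM solution mixed 1:1 with cells, was followed for 30 min at 340/490 nm. SpsB came from a suspension of SpsB-overexpressing USA300 S. aureus in Tween-80-containing PBS buffer. Slopes plotted against 3-fold compound dilutions gave IC50.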

[4] = test system: Escherichia coli MC4100 harboring the IMP4213 (E. coli IMP); assay: microbe, parasite or virus in culture; type: cell-based; conditions: Escherichia coli, 22 h, read-out: MIC (μg/mL) E. coli IMP, E. coli MC4100 IMP4213, increased outer-membrane permeability; 35° C., 22 hours
Method in brief: as §1

[5] = E. coli ATCC 25922, read-out: MIC (μg/mL) E. coli
[6] = MRSA USA 300 NRS384, read-out: MIC (μg/mL) S. aureus
[7] = read-out: MIC (μg/mL) E. coli, E. coli ATCC 25922
[8] = read-out: MIC (μg/mL) S. aureus, MRSA USA 300 NRS384

T1 sequence (P0A070 whole entry): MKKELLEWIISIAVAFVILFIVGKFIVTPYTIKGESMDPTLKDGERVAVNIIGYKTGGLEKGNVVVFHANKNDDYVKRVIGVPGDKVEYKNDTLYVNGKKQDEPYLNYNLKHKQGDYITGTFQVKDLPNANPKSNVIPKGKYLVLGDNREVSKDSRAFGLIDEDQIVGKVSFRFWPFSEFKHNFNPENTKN

| Compound | MIC [1, 5] [µg/mL] | MIC [2, 6] [µg/mL] | pIC50 [3] | MIC [4] [µg/mL] | MIC [1, 7] [µg/mL] | MIC [2, 8] [µg/mL] |
| --- | --- | --- | --- | --- | --- | --- |
| CCCCCCCCc1ccc(C(=O)N[C@@H](CCN)C(=O)N(C)[C@@H]2C(=O)N[C@@H](C)C(=O)N[C@H](C(=O)NCC#N)Cc3ccc(OCCN)c(c3)-c3cc2ccc3OCCN)c(C)c1 [Compound 339] | 0.13 (≈ 0.15 µM) | 0.047 (≈ 0.0541 µM) | > 9.30 | 0.018 (≈ 0.0207 µM) | – | – |
| CCCCc1ccc(-c2ccc(C(=O)N[C@@H](CN)C(=O)N(C)[C@@H]3C(=O)N[C@@H](C)C(=O)N[C@H](C(=O)NCC#N)Cc4ccc(OCCN)c(c4)-c4cc3ccc4OCCN)cc2)cc1 [Compound 341] | 0.5 (≈ 0.581 µM) | 0.13 (≈ 0.151 µM) | 8.96 | 0.031 (≈ 0.036 µM) | – | – |
| CCCCCCCCCCCCCC(=O)N[C@@H](CN)C(=O)N(C)[C@@H]1C(=O)N[C@@H](C)C(=O)N[C@H](C(=O)N[C@@H](C)C#N)Cc2ccc(OCCN)c(c2)-c2cc1ccc2OCCN [Compound 342] | 0.5 (≈ 0.59 µM) | 0.19 (≈ 0.224 µM) | 8.89 | 0.063 (≈ 0.0743 µM) | – | – |
| CCCCCCCCCCCCCC(=O)N[C@@H](CN)C(=O)N(C)[C@@H]1C(=O)N[C@@H](C)C(=O)N[C@H](C(=O)NCC#N)Cc2ccc(OCCN)c(c2)-c2cc1ccc2OCCN [Compound 343] | 0.25 (≈ 0.3 µM) | 0.094 (≈ 0.113 µM) | 9.14 | 0.063 (≈ 0.0755 µM) | – | – |
| CCCCCCCCc1ccc(C(=O)N[C@@H](CN)C(=O)N(C)[C@@H]2C(=O)N[C@@H](C)C(=O)N[C@H](C(=O)NCC#N)Cc3ccc(OCCN)c(c3)-c3cc2ccc3OCCN)cc1 [Compound 344] | 0.38 (≈ 0.452 µM) | 0.094 (≈ 0.112 µM) | 9.00 | 0.036 (≈ 0.0429 µM) | – | – |
| CCCCCCCCS(=O)(=O)N[C@@H](CO)C(=O)N(C)[C@@H]1C(=O)N[C@@H](C)C(=O)N[C@H](C(=O)NCC#N)Cc2ccc(OCCN)c(c2)-c2cc1ccc2OCCN [Compound 345] | – | – | 8.66 | 2 (≈ 2.5 µM) | > 64 | 0.5 (≈ 0.624 µM) |
| CCCCCCCCCCS(=O)(=O)N[C@@H](CCN)C(=O)N(C)[C@@H]1C(=O)N[C@@H](C)C(=O)N[C@H](C(=O)NCC#N)Cc2ccc(OCCN)c(c2)-c2cc1ccc2OCCN [Compound 346] | 8 (≈ 9.5 µM) | 0.031 (≈ 0.0368 µM) | 9.15 | 0.063 (≈ 0.0748 µM) | – | – |
| CCCCCCCCCCNCCS(=O)(=O)N[C@@H](CCO)C(=O)N(C)[C@@H]1C(=O)N[C@@H](C)C(=O)N[C@H](C(=O)NCC#N)Cc2ccc(OCCN)c(c2)-c2cc1ccc2OCCN [Compound 348] | – | – | 9.10 | 1 (≈ 1.13 µM) | > 64 | 0.055 (≈ 0.0621 µM) |
| CCCCCCCCCCNCCS(=O)(=O)N[C@@H](CCN)C(=O)N(C)[C@@H]1C(=O)N[C@@H](C)C(=O)N[C@H](C(=O)NCC#N)Cc2ccc(OCCN)c(c2)-c2cc1ccc2OCCN [Compound 350] | 4 (≈ 4.52 µM) | 0.016 (≈ 0.0181 µM) | 9.00 | 0.063 (≈ 0.0712 µM) | – | – |
| CCCCCCCCCC(=O)N[C@H](CCC)C(=O)N[C@@H](CCN)C(=O)N(C)[C@@H]1C(=O)N[C@@H](C)C(=O)N[C@H](C(=O)NCC#N)Cc2ccc(OCCN)c(c2)-c2cc1ccc2OCCN [Compound 353] | – | – | 9.09 | 0.016 (≈ 0.018 µM) | 2 (≈ 2.24 µM) | 0.047 (≈ 0.0527 µM) |
| CCCCc1ccc(C(=O)N[C@H](CCC)C(=O)N[C@@H](CCN)C(=O)N(C)[C@@H]2C(=O)N[C@@H](C)C(=O)N[C@H](C(=O)NCC#N)Cc3ccc(OCCN)c(c3)-c3cc2ccc3OCCN)c(C)c1 [Compound 354] | – | – | 8.74 | 0.063 (≈ 0.0691 µM) | 8 (≈ 8.78 µM) | 0.25 (≈ 0.274 µM) |
| CCCCc1ccc(C(=O)N[C@@H](CCC)C(=O)N[C@@H](CCN)C(=O)N(C)[C@@H]2C(=O)N[C@@H](C)C(=O)N[C@H](C(=O)NCC#N)Cc3ccc(OCCN)c(c3)-c3cc2ccc3OCCN)c(C)c1 [Compound 355] | – | – | 8.96 | 0.031 (≈ 0.034 µM) | 4 (≈ 4.39 µM) | 0.13 (≈ 0.143 µM) |
| CCCCCCCCCC(=O)N[C@@H](CO)C(=O)N[C@@H](CCN)C(=O)N(C)[C@@H]1C(=O)N[C@@H](C)C(=O)N[C@H](C(=O)NCC#N)Cc2ccc(OCCN)c(c2)-c2cc1ccc2OCCN [Compound 360] | – | – | 8.92 | 0.31 (≈ 0.353 µM) | 24 (≈ 27.3 µM) | 0.22 (≈ 0.25 µM) |
